The values below come from PubChem BioAssay AID449750 (Broad Institute, 2010).

The nature of this assay: non-covalent RecA intein splicing inhibitors, dose response, biochemical, cell-free, fluorescence, secondary screen (AID 449750).

Values joined by “and” are separate entries in the source; they are usually repeats but may differ in a detail not shown here. Identical values can stand only once. Active and inactive are the calls of the source. No rule for the calls is given here.

With `CCn1c2ccccc2c2cc(C3C(C#N)=C(N)Oc4n[nH]c(COC)c43)ccc21` (centres undefined), the AC50 was 8.48 µM.
Under `CCOc1ccc(CN2CCN(CC3=Cc4cccc(OC)c4OC3)CC2CCO)cc1` (centres undefined) stands > 38 µM (inactive); under `CCCCn1[nH]c(-c2ccccc2)cc1=O`, 8.57 µM; under `COc1cc(C(c2c(C)[nH][nH]c2=O)c2c(C)[nH][nH]c2=O)cc(OC)c1OC`, 11.8 µM.
`O=C(CS(=O)c1ccc(C(F)(F)F)cc1[N+](=O)[O-])Oc1ccccc1` (centres undefined): the AC50 is > 38 µM (inactive).
On to `COc1cc(/C=C2/C(=O)N(c3cccc(Br)c3)N=C2C)cc(OC)c1O`, for which the AC50 was 9.46 µM.
The result for `CCOc1cc(C2C(C#N)=C(N)Oc3n[nH]c(CC)c32)ccc1OCCN1CCOCC1` (centres undefined) reads > 38 µM (inactive); that for `Cc1ccc(SCC2=NNC(=O)C2)cc1`, 31.5 µM; that for `COC1(OC)C(/C=C/c2ccc(C)cc2)C(C#N)(C#N)C1(OC)OC` (centres undefined), > 38 µM (inactive).
Under `COc1ccc(/C=C2\SC(=S)N(CCCC(=O)Nc3ccc(O)cc3)C2=O)cc1` stands > 38 µM (inactive); under `c1ccc(C2[C@H]3CN(Cc4cccnc4)[C@H](c4ccccc4)C34CC2(c2cccnc2)C4)cc1` (some centres undefined), 10.7 µM.
The result for `CCN(CC)S(=O)(=O)c1ccc(N2CCN(S(=O)(=O)c3ccccc3C#N)CC2)nc1` reads > 38 µM (inactive); that for `Cc1ccc(NC(=O)C2=C(c3ccccc3)S(=O)(=O)CCS2(=O)=O)cc1`, > 38 µM (inactive); that for `O=C(NC1C(=O)NNC1c1ccccc1)c1ccccc1` (centres undefined), > 38 µM (inactive).
On to `CCOC(=O)c1sc(N(Cc2ccccc2)C(=O)CCl)nc1C`, for which the AC50 was 5.79 µM.
Under `CC(C)(C)c1[nH]nc2c1C(c1ccoc1)C(C#N)=C(N)O2` (centres undefined) stands > 38 µM (inactive); under `Cc1ccc(-c2nc(CN3CCCC(C(=O)N4CCOCC4)C3)c(C)o2)cc1` (centres undefined), > 38 µM (inactive); under `Cc1cccc(NC(=S)N/N=C2/CCCCc3ccccc32)c1`, > 38 µM (inactive).
The result for `CC(C)[C@H](NC(=O)OC(C)(C)C)c1nnc(S(=O)(=O)Cc2c(F)cccc2Cl)o1` reads > 38 µM (inactive); that for `O=C(/C=C/c1ccc(O)cc1)c1ccc(NC2=C(N3CCCCC3)C(=O)c3ccccc3C2=O)cc1`, 2.06 µM; that for `CC(C)N(CC(=O)Nc1ccc(Cl)cc1C(F)(F)F)C(=O)CCl`, 12.9 µM.
Under `CC(C)c1nnc(NC(=O)c2nc(S(=O)(=O)Cc3ccccc3F)ncc2Cl)s1` stands > 38 µM (inactive); under `Oc1[nH]c2ccc(Br)cc2c1N=NC(=S)N1CCOCC1`, > 38 µM (inactive); under `CCOc1cc(/C=C2\C(=O)N(c3ccc(C(N)=O)cc3)N=C2C)ccc1OC(=O)c1cccs1`, 2.76 µM.
As to `O=C1NC(c2ccc(-c3ccccc3[N+](=O)[O-])o2)C(C(=O)c2ccc(Cl)cc2)C(O)(C(F)(F)F)N1` (centres undefined), the AC50 is 17 µM.
As for `Oc1c(C=NCc2ccc(F)cc2)[nH]c2ccc(Br)c(Cl)c12`, the AC50 was 30.8 µM.
Under `Nc1cc(N)c(OCC(F)(F)F)cc1OCC(F)(F)F` stands 9.65 µM; under `CCOC(=O)c1ccc(NC2=CC(=O)C(=O)c3ccccc32)cc1`, > 38 µM (inactive).
The result for `COc1ccccc1NC1=C(Cl)C(=O)OC1OC(=O)c1ccco1` (centres undefined) reads > 38 µM (inactive); that for `COc1ccc(C(=O)Nc2ccc(O)c3ccccc23)cc1OC`, > 38 µM (inactive); that for `Cc1cc(F)ccc1S(=O)(=O)N(C(=O)c1ccncc1)c1ccc(OC(=O)c2ccncc2)cc1`, > 38 µM (inactive).
The result for `Cc1ccc(Sc2c([N+](=O)[O-])ncn2C)cc1` reads > 38 µM (inactive).
`O=S(=O)(O)Oc1c[nH]c2ccccc12`: the AC50 is 5.48 µM.
Under `Cc1cc(C(=O)c2ccc(C(C)(C)C)cc2)c(NC(=O)CCl)s1` stands 9.8 µM.
The result for `O=C(Cc1cc(=O)[nH][nH]1)N/N=C/c1c(Cl)cccc1Cl` reads 16 µM and 23.9 µM.
Under `CCNc1ccccc1CP(=O)(c1ccccc1)c1ccccc1O` (centres undefined) stands 22.6 µM; under `Cc1cc(O)c(C(C)C)cc1N=Cc1ccccc1O`, 5.1 µM; under `COc1ccc(Nc2nc(N3CCCCC3)nc3ccccc23)c(OC)c1`, > 38 µM (inactive).
`Cc1[nH][nH]c(=O)c1C(c1ccccc1[N+](=O)[O-])C(C#N)C#N` (centres undefined): the AC50 was > 38 µM (inactive).
The result for `C(=N\Nc1nncc2ccccc12)/c1ccccn1` reads 19.8 µM; that for `COc1cc(Cc2nccc3cc(OC)c(OC)cc23)c(S(=O)(=O)O)cc1OC`, > 38 µM (inactive); that for `NS(=O)(=O)c1ccc(NC2=CC(=O)C(=O)c3ccccc32)cc1`, 7.47 µM.
For the compound `COC(=O)c1cccc(-c2ccc(C(c3c(C)[nH][nH]c3=O)c3c(C)[nH][nH]c3=O)o2)c1`, the AC50 was 3.29 µM.
The result for `Cc1[nH]n(-c2ccccc2)c(=O)c1C(c1cccc([N+](=O)[O-])c1O)c1c(C)[nH]n(-c2ccccc2)c1=O` reads 1.72 µM; that for `Cc1nn(-c2ccccc2)c2c1C(c1ccco1)C(C#N)=C(N)O2` (centres undefined), 14 µM; that for `CCCCCCCCCCOC(=O)Cn1c(COc2cccc(OC)c2)[n+](C)c2ccccc21`, 9.12 µM.
The result for `CCCC1C(C#N)=C(N)Oc2n[nH]c(C(C)(C)C)c21` (centres undefined) reads 1.7 µM; that for `Cc1ccc([N+](=O)[O-])cc1S(=O)(=O)N(C(=O)c1ccncc1)c1ccc2oc3c(c2c1)CCCC3`, > 38 µM (inactive); that for `O=C(CN1CCN(S(=O)(=O)c2ccc(Cl)cc2)CC1)Nc1ccc2c(c1)OCO2`, > 38 µM (inactive).
The result for `CN(C)C(=S)N=Nc1[nH]c2ccccc2c1O` reads > 38 µM (inactive); that for `CC1=C(C)CC2(SC1)C(=O)N(c1ccccc1)N=C2N` (centres undefined), > 38 µM (inactive); that for `Cc1[nH]nc2c1C(c1ccc(OC(=O)c3ccco3)cc1)C(C#N)=C(N)O2` (centres undefined), > 38 µM (inactive).
On to `O=[N+]([O-])c1c(NCCCO)cc(SCc2ccco2)c2nonc12`, for which the AC50 was > 38 µM (inactive).
The result for `O=[N+]([O-])c1ccc(S(=O)(=O)c2cccc(C(F)(F)F)c2)nc1` reads > 38 µM (inactive).
Under `O=[N+]([O-])c1cncc([N+](=O)[O-])c1Nc1cccc(O)c1` stands > 38 µM (inactive); under `COc1cc(NCCCCCCCN)c2ncccc2c1`, 13.6 µM; under `CCN(CC)c1ccc(/C=N/Nc2nc(C)cc(=O)[nH]2)c(O)c1`, > 38 µM (inactive).
The result for `O=[N+]([O-])C(/C=C(\Cl)[N+](=O)[O-])=C1N(Cc2ccc(Cl)nc2)CCN1Cc1ccc(Cl)nc1` reads > 38 µM (inactive); that for `O=C(NCc1ccc2c(c1)OCO2)c1nc(S(=O)(=O)Cc2ccccc2F)ncc1Cl`, > 38 µM (inactive); that for `CC1=NNC(=O)C1Cc1ccccc1` (centres undefined), > 38 µM (inactive).
For the compound `Nc1ccc(N(CCO)CCO)cc1`, the AC50 is > 38 µM (inactive).
Take `O=S(=O)(c1ccccc1)c1ncc(C(F)(F)F)cc1Cl`: the AC50 is > 38 µM (inactive).
The result for `Cn1cnc([N+](=O)[O-])c1Sc1nnc(-c2cccnc2)n1C` reads > 38 µM (inactive).
The result for `CCOc1ccc2c(c1)-c1c(ssc1=S)C(C)(C)N2` reads > 38 µM (inactive).

The AC50 is the concentration at which the activity in the assay is half-maximal.
